Experiments:
[1] = Nasal irritation and histopathology of nasal epithelium after intranasal administration in rabbits; format: in vivo, New Zealand white rabbits; settings: doses 0.312 mg, 0.625 mg and 1.25 mg, all three groups
Experimental: (§1) The study was carried out on total 24 male New Zealand white rabbits, which were segregated into four groups (G1 to G4, 6 rabbits/group). Mild anaesthesia was induced in all rabbits by inhalation of 2% isoflurane. Three groups (G1-G3) of anaesthetized rabbits were intranasally administered 250 μL of alcaftadine once daily using the formulations of Examples 1A, 1B, and 1C. A comparator, 250 μL of olopatadine at a concentration of 0.6% w/v, was intranasally administered once-daily to a fourth group G4 of anaesthetized rabbits.
(§2) Procedure for sample preparation: Collected blood samples were mixed gently and kept on crushed ice. Plasma samples were separated after centrifugation at 3500 rpm for 10 min at 4° C. Plasma separation was carried out within 30 min of sample collection and stored at −70±10° C. The animals were euthanized by intravenous administration of sodium thiopental injection overdose and nasal epithelium was collected. Half of the tissues of nasal epithelium were homogenized using phosphate buffered solution (20% homogenation) for quantification of alcaftadine and olopatidine. The remaining half of the tissues were stored in 10% neutral buffered formalin for detailed gross histopathological examination such as necrosis, inflammation or any changes during necropsy.

[2] = Pharmacokinetics after intranasal administration in rabbits; format: in vivo, New Zealand white rabbits
Experimental: The pharmacokinetic profiles for Example 1A, 1B and 1C as well as an olapatdine nasal formulation were each determined on 6 male New Zealand white rabbits. The olopatadine nasal formulation (0.6% w/v) was prepared from Olopat Max® 0.7% w/v, where Olopat Max® was diluted to 0.6% w/v by using purified water.
as §1
Sampling details for the test and reference formulations: Approximately 0.5 mL of blood sample from each rabbit was withdrawn via marginal car vein into pre-labelled Eppendorf tubes containing 10% EDTA as an anticoagulant. Blood samples were withdrawn at 0 min, 5 min, 10 min, 15 min, 30 min, 60 min, 120 min, 240 min, 480 min and 1440 min after administration of test and reference formulations.
as §2
Rabbit plasma and nasal epithelial tissue concentrations of alcaftadine or olopatidine were determined using a fit-for-purpose LC-MS/MS method with LLOQ of 0.500 ng/ml or 0.250 ng/mL, respectively. The pharmacokinetic parameters were evaluated using Phoenix WinNonlin® Ent-Version 8.0 by non-compartmental analysis.

[3] = single intranasal administration, doses 0.625 to 1.25 mg, rabbits

area under the curve (AUC0-24h) [2, 3] | peak plasma concentrations (Cmax) [2, 3] | time to achieve maximum concentration (Tmax) ([2]; single intranasal instillation, dose 0.625 mg (250 μL of Example 1B), rabbit plasma) [min] | Tmax ([2]; male, New Zealand white, inhaled or intranasal, single intranasal administration of 1.5 mg (250 μL, 0.6% w/v), rabbit plasma, read-out: time to reach peak concentration (Tmax)) [min] | Compound | signs or symptoms of inflammation or irritation [1] | plasma concentration / systemic exposure ([2]; intranasal, rabbits) | onset of action versus intranasal olopatadine (from Tmax) ([2]; intranasal, rabbits, olopatadine 1.5 mg)
dose proportional | dose proportional | 4.8 | – | CN1CCC(=C2c3ccccc3CCn3c(C=O)cnc32)CC1 [Alcaftadine, 6,11-dihydro-11-(1-methyl-4-piperidinylidene)-5H-imidazo[2,1-b][3]benzazepine-3-carboxaldehyde] | no signs or symptoms of inflammation or irritation were observed | dose proportional with overall low systemic exposure | faster onset of action than intranasal olopatadine
– | – | – | 22.8 | CN(C)CC/C=C1/c2ccccc2COc2ccc(CC(=O)O)cc21 [olopatadine] | – | – | –
